Results: the supplement of paper PMC9663587

How the values were obtained:
Paclitaxel = compound: CC(=O)O[C@H]1C(=O)[C@@]2(C)[C@H]([C@H](OC(=O)c3ccccc3)[C@]3(O)C[C@H](OC(=O)[C@H](O)[C@@H](NC(=O)c4ccccc4)c4ccccc4)C(C)=C1C3(C)C)[C@]1(OC(C)=O)CO[C@@H]1C[C@@H]2O [Paclitaxel]
BSJ-03-123 [1] = compound: T1, CC(=O)c1c(C)c2cnc(Nc3ccc(N4CCN(CCOCCOCCOCCNC(=O)COc5cccc6c5C(=O)N(C5CCC(=O)NC5=O)C6=O)CC4)cn3)nc2n(C2CCCC2)c1=O [BSJ-03-123]
INK128/MLN0128 = compound: CC(C)n1nc(-c2ccc3oc(N)nc3c2)c2c(N)ncnc21 [INK128/MLN0128]
[2] = compound: CCN1CCN(Cc2ccc(Nc3ncc(F)c(-c4cc(F)c5nc(C)n(C(C)C)c5c4)n3)nc2)CC1
Neratinib/HKI272 [3] = compound: T2, CCOc1cc2ncc(C#N)c(Nc3ccc(OCc4ccccn4)c(Cl)c3)c2cc1NC(=O)/C=C/CN(C)C [Neratinib/HKI272]
Volasertib/BI6727 = compound: CC[C@@H]1C(=O)N(C)c2cnc(Nc3ccc(C(=O)N[C@H]4CC[C@H](N5CCN(CC6CC6)CC5)CC4)cc3OC)nc2N1C(C)C [Volasertib/BI6727]
LEE011/Ribociclib [4] = compound: T3, CN(C)C(=O)c1cc2cnc(Nc3ccc(N4CCNCC4)cn3)nc2n1C1CCCC1 [LEE011/Ribociclib]
THZ531 = compound: CN(C)C/C=C/C(=O)Nc1ccc(C(=O)N2CCC[C@@H](Nc3ncc(Cl)c(-c4c[nH]c5ccccc45)n3)C2)cc1 [THZ531]
ABT-737 = compound: CN(C)CC[C@H](CSc1ccccc1)Nc1ccc(S(=O)(=O)NC(=O)c2ccc(N3CCN(Cc4ccccc4-c4ccc(Cl)cc4)CC3)cc2)cc1[N+](=O)[O-] [ABT-737]
[5] = compound: COc1ccc2c(c1)[C@]1(C[C@H]1c1ccc3c(/C=C/c4ccc(CN5C[C@@H](C)O[C@@H](C)C5)cc4)n[nH]c3c1)C(=O)N2
Pictilisib/GDC0941 = compound: CS(=O)(=O)N1CCN(Cc2cc3nc(-c4cccc5[nH]ncc45)nc(N4CCOCC4)c3s2)CC1 [Pictilisib/GDC0941]
Ceritinib/LDK378 = compound: Cc1cc(Nc2ncc(Cl)c(Nc3ccccc3S(=O)(=O)C(C)C)n2)c(OC(C)C)cc1C1CCNCC1 [Ceritinib/LDK378]
Taselisib/GDC0032 = compound: Cc1nc(-c2cn3c(n2)-c2ccc(-c4cnn(C(C)(C)C(N)=O)c4)cc2OCC3)n(C(C)C)n1 [Taselisib/GDC0032]
Tivantinib/ARQ197 = compound: O=C1NC(=O)[C@@H](c2cn3c4c(cccc24)CCC3)[C@@H]1c1c[nH]c2ccccc12 [Tivantinib/ARQ197]
YKL-5-124 = compound: C=CC(=O)Nc1ccc(C(=O)Nc2[nH]nc3c2CN(C(=O)N[C@H](CN(C)C)c2ccccc2)C3(C)C)cc1 [YKL-5-124]; assay: GR value, 72 h; higher = faster growth (1 = untreated, <0 = killing);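 also: breast cancer and non-malignant breast epithelial lines, nine half-log doses, viable cells counted by Hoechst and LIVE/DEAD dye imaging versus time-zero plates and DMSO controls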
BSJ-03-123 [6] = compound: T1, BSJ-03-123; assay: as above
[7] = compound: CCN1CCN(Cc2ccc(Nc3ncc(F)c(-c4cc(F)c5nc(C)n(C(C)C)c5c4)n3)nc2)CC1; assay: as above
Neratinib/HKI272 [8] = compound: T2, Neratinib/HKI272; assay: as above
[9] = compound: CCc1cnn2c(NCc3ccc[n+]([O-])c3)cc(N3CCCC[C@H]3CCO)nc12; assay: as above
LEE011/Ribociclib [10] = compound: T3, LEE011/Ribociclib; assay: as above
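For GR50, 72 h in this document: breast cancer and non-malignant breast epithelial cell lines, Deep Dye Drop or Dye Drop imaging, nine half-log doses, GR normalized to time-zero plates and DMSO-only controls.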

Cell Line: CAL851
- GR50, 72 h (Paclitaxel): 0.00273 µM
- GR50, 72 h (BSJ-03-123 [1]): 0.431 µM
- GR50, 72 h (INK128/MLN0128): 0.00883 µM
- GR50, 72 h [2]: 1.3 µM
- GR50, 72 h (Neratinib/HKI272 [3]): 0.0339 µM
- GR50, 72 h (Volasertib/BI6727): 0.00327 µM
- GR50, 72 h (LEE011/Ribociclib [4]): > 10 µM
- GR50, 72 h (THZ531): 0.0715 µM
- GR50, 72 h (ABT-737): > 10 µM
- GR50, 72 h [5]: 0.00209 µM
- GR50, 72 h (Pictilisib/GDC0941): 0.647 µM
- GR50, 72 h (Ceritinib/LDK378): 0.74 µM
- GR50, 72 h (Taselisib/GDC0032): 0.0604 µM
- GR50, 72 h (Tivantinib/ARQ197): 0.198 µM
- GR value (YKL-5-124; 0.001 µM): 0.137 GR
- GR value (YKL-5-124; 0.003162 µM): -0.128 GR
- GR value (YKL-5-124; 0.01 µM): -0.137 GR
- GR value (YKL-5-124; 0.03162 µM): -0.128 GR
- GR value (YKL-5-124; 0.1 µM): -0.177 GR
- GR value (YKL-5-124; 0.3162 µM): -0.275 GR
- GR value (YKL-5-124; 1 µM): -0.172 GR
- GR value (YKL-5-124; 3.162 µM): -0.25 GR
- GR value (YKL-5-124; 10 µM): -0.561 GR
- GR value (BSJ-03-123 [6]; 0.001 µM): 1.15 GR
- GR value (BSJ-03-123 [6]; 0.003162 µM): 0.948 GR
- GR value (BSJ-03-123 [6]; 0.01 µM): 0.849 GR
- GR value (BSJ-03-123 [6]; 0.03162 µM): 0.839 GR
- GR value (BSJ-03-123 [6]; 0.1 µM): 0.601 GR
- GR value (BSJ-03-123 [6]; 0.3162 µM): 0.599 GR
- GR value (BSJ-03-123 [6]; 1 µM): 0.447 GR
- GR value (BSJ-03-123 [6]; 3.162 µM): 0.209 GR
- GR value (BSJ-03-123 [6]; 10 µM): -0.238 GR
- GR value ([7]; 0.001 µM): 1.09 GR
- GR value ([7]; 0.003162 µM): 0.968 GR
- GR value ([7]; 0.01 µM): 1.08 GR
- GR value ([7]; 0.03162 µM): 1.05 GR
- GR value ([7]; 0.1 µM): 1.12 GR
- GR value ([7]; 0.3162 µM): 0.914 GR
- GR value ([7]; 1 µM): 0.617 GR
- GR value ([7]; 3.162 µM): -0.0347 GR
- GR value ([7]; 10 µM): -0.233 GR
- GR value (Neratinib/HKI272 [8]; 0.0003162 µM): 1.04 GR
- GR value (Neratinib/HKI272 [8]; 0.001 µM): 0.993 GR
- GR value (Neratinib/HKI272 [8]; 0.003162 µM): 0.881 GR
- GR value (Neratinib/HKI272 [8]; 0.01 µM): 0.747 GR
- GR value (Neratinib/HKI272 [8]; 0.03162 µM): 0.435 GR
- GR value (Neratinib/HKI272 [8]; 0.1 µM): 0.226 GR
- GR value (Neratinib/HKI272 [8]; 0.3162 µM): 0.109 GR
- GR value (Neratinib/HKI272 [8]; 1 µM): -0.0501 GR
- GR value (Neratinib/HKI272 [8]; 3.162 µM): -0.322 GR
- GR value ([9]; 0.0001 µM): 0.97 GR
- GR value ([9]; 0.0003162 µM): 1.08 GR
- GR value ([9]; 0.001 µM): 0.982 GR
- GR value ([9]; 0.003162 µM): 0.681 GR
- GR value ([9]; 0.01 µM): 0.0301 GR
- GR value ([9]; 0.03162 µM): -0.178 GR
- GR value ([9]; 0.1 µM): -0.234 GR
- GR value ([9]; 0.3162 µM): -0.213 GR
- GR value ([9]; 1 µM): -0.239 GR
- GR value (LEE011/Ribociclib [10]; 0.001 µM): 1.09 GR
- GR value (LEE011/Ribociclib [10]; 0.003162 µM): 0.939 GR
- GR value (LEE011/Ribociclib [10]; 0.01 µM): 0.859 GR
- GR value (LEE011/Ribociclib [10]; 0.03162 µM): 1.1 GR
- GR value (LEE011/Ribociclib [10]; 0.1 µM): 0.931 GR
- GR value (LEE011/Ribociclib [10]; 0.3162 µM): 0.775 GR
- GR value (LEE011/Ribociclib [10]; 1 µM): 0.874 GR
- GR value (LEE011/Ribociclib [10]; 3.162 µM): 1.04 GR
- GR value (LEE011/Ribociclib [10]; 10 µM): 1.11 GR
